This note sets out measurements from patent US9242984B2, “Pyrazolyl derivatives as Syk inhibitors” (Merck Sharp & Dohme Corp., priority 2012, dated 2016).

Structures are written as SMILES. pIC50: −log10 of the molar value. Some results are limits rather than exact numbers.

The first assay deals with T1, recombinant human Syk (GST-hSyk fusion protein) (Homo sapiens, UniProt P43405).
T1 construct: purchased Carna Biosciences 08-176
Description: Homogeneous Time-Resolved Fluorescence (HTRF) assay for the recombinant human Syk enzyme. As to conditions: 10-dose titration, 25 μM ATP; read-out: rhSYK IC50. It is filed as biochemical. The method in brief:
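GST-hSyk (5 pM) preincubated 10 min with compound (0.1% DMSO) in 15 mM Tris-HCl pH 7.5, 2 mM DTT; reaction started with 250 nM biotinylated peptide, 5 mM Mg, 25 μM ATP, 45 min, room temperature. EDTA quench, Eu-anti-phosphotyrosine/SA-APC HTRF read after 30 min; IC50 from 10-dose titration (10 μM–0.508 nM), four-parameter fit.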
Take `Cc1cc(Nc2nccc(C(F)(F)F)n2)cc(-c2cnn(C[C@H](O)C(=O)NCCO)c2)c1` [Example 6.1, (2S)-2-hydroxy-N-(2-hydroxyethyl)-3-[4-(3-methyl-5-{[4-(trifluoromethyl)pyrimidin-2-yl]amino}phenyl)-1H-pyrazol-1-yl]propanamide]: the pIC50 is 7.68.

Still in this assay, the particulars now being: IC50 class; 10-dose titration, 25 μM ATP; read-out: rhSYK Activity.
For `COCC(O)Cn1cc(-c2cc(C)cc(Nc3nccc(C(F)F)n3)c2)cn1` (stereo not drawn) [Example 5.22, 1-[4-(3-{[4-(difluoromethyl)pyrimidin-2-yl]amino}-5-methylphenyl)-1H-pyrazol-1-yl]-3-methoxypropan-2-ol], the pIC50 was ≥ 7.00.

As for `Cc1cc(Nc2nccc(C(F)F)n2)cc(-c2cnn(CC(O)C(C)C)c2)c1` (stereo not drawn) [Example 5.23, 1-[4-(3-{[4-(difluoromethyl)pyrimidin-2-yl]amino}-5-methylphenyl)-1H-pyrazol-1-yl]-3-methylbutan-2-ol], the pIC50 is ≥ 7.00.

Take `Cc1cc(Nc2nccc(C(F)F)n2)cc(-c2cnn(CC(O)C(F)(F)F)c2)c1` (stereo not drawn) [Example 5.24, 3-[4-(3-{[4-(difluoromethyl)pyrimidin-2-yl]amino}-5-methylphenyl)-1H-pyrazol-1-yl]-1,1,1-trifluoropropan-2-ol]: the pIC50 is ≥ 7.00.

On to `Cc1cc(Nc2nccc(C(F)F)n2)cc(-c2cnn(CC(O)Cn3cccn3)c2)c1` (stereo not drawn) [Example 5.25, 1-[4-(3-{[4-(difluoromethyl)pyrimidin-2-yl]amino}-5-methylphenyl)-1H-pyrazol-1-yl]-3-(1H-pyrazol-1-yl)propan-2-ol], for which the pIC50 was ≥ 7.00.

In the case of `Cc1cc(Nc2nccc(C(F)F)n2)cc(-c2cnn(CC(O)c3ccccn3)c2)c1` (stereo not drawn) [Example 5.26, 2-[4-(3-{[4-(difluoromethyl)pyrimidin-2-yl]amino}-5-methylphenyl)-1H-pyrazol-1-yl]-1-pyridin-2-ylethanol], the pIC50 is ≥ 7.00.

With `Cc1cc(Nc2nccc(C(F)F)n2)cc(-c2cnn(CC(O)CC3(O)CCCCC3)c2)c1` (stereo not drawn) [Example 5.27, 1-{3-[4-(3-{[4-(difluoromethyl)pyrimidin-2-yl]amino}-5-methylphenyl)-1H-pyrazol-1-yl]-2-hydroxypropyl}cyclohexanol], the pIC50 was ≥ 7.00.

For the molecule `Cc1cc(Nc2nccc(C(F)F)n2)cc(-c2cnn(CC(O)CC3COC(=O)C3)c2)c1` (stereo not drawn) [Example 5.28, 4-{3-[4-(3-{[4-(difluoromethyl)pyrimidin-2-yl]amino}-5-methylphenyl)-1H-pyrazol-1-yl]-2-hydroxypropyl}dihydrofuran-2(3H)-one], the pIC50 is ≥ 7.00.

`Cc1cc(Nc2nccc(C(F)F)n2)cc(-c2cnn(CC(O)CC(C)O)c2)c1` (stereo not drawn) [Example 5.29, 1,3,5-trideoxy-1-[4-(3-{[4-(difluoromethyl)pyrimidin-2-yl]amino}-5-methylphenyl)-1H-pyrazol-1-yl]pentitol]: the pIC50 was ≥ 7.00.

Regarding `Cc1cc(Nc2nccc(C(F)F)n2)cc(-c2cnn(CC(O)C(C)(C)C)c2)c1` (stereo not drawn) [Example 5.30, 1-[4-(3-{[4-(difluoromethyl)pyrimidin-2-yl]amino}-5-methylphenyl)-1H-pyrazol-1-yl]-3,3-dimethylbutan-2-ol], the pIC50 is ≥ 7.00.

For the molecule `Cc1cc(Nc2nccc(C(F)F)n2)cc(-c2cnn(CC(O)COCC(F)(F)F)c2)c1` (stereo not drawn) [Example 5.31, 1-[4-(3-{[4-(difluoromethyl)pyrimidin-2-yl]amino}-5-methylphenyl)-1H-pyrazol-1-yl]-3-(2,2,2-trifluoroethoxy)propan-2-ol], the pIC50 is ≥ 7.00.

For `CCC(O)(CC)Cn1cc(-c2cc(C)cc(Nc3nccc(C(F)F)n3)c2)cn1` [Example 5.32, 3-{[4-(3-{[4-(difluoromethyl)pyrimidin-2-yl]amino}-5-methylphenyl)-1H-pyrazol-1-yl]methyl}pentan-3-ol], the pIC50 was ≥ 7.00.

As for `Cc1cc(Nc2nccc(C(F)F)n2)cc(-c2cnn(CC(O)CN3CCCC3=O)c2)c1` (stereo not drawn) [Example 5.33, 1-{3-[4-(3-{[4-(difluoromethyl)pyrimidin-2-yl]amino}-5-methylphenyl)-1H-pyrazol-1-yl]-2-hydroxypropyl}pyrrolidin-2-one], the pIC50 is ≥ 7.00.

For the molecule `Cc1cc(Nc2nccc(C(F)F)n2)cc(-c2cnn(CC(O)C3CCCNC3)c2)c1` (stereo not drawn) [Example 5.34, 2-[4-(3-{[4-(difluoromethyl)pyrimidin-2-yl]amino}-5-methylphenyl)-1H-pyrazol-1-yl]-1-piperidin-3-ylethanol], the pIC50 is ≥ 7.00.

As to `Cc1cc(Nc2nccc(C(F)F)n2)cc(-c2cnn(CC(C)(C)O)c2)c1` [Example 5.35, 1-[4-(3-{[4-(difluoromethyl)pyrimidin-2-yl]amino}-5-methylphenyl)-1H-pyrazol-1-yl]-2-methylpropan-2-ol], the pIC50 is ≥ 7.00.

As to `Cc1cc(Nc2nccc(C(F)F)n2)cc(-c2cnn(CC(O)C(=O)O)c2)c1` (stereo not drawn) [Example 5.36, 3-[4-(3-{[4-(difluoromethyl)pyrimidin-2-yl]amino}-5-methylphenyl)-1H-pyrazol-1-yl]-2-hydroxypropanoic acid], the pIC50 was ≥ 7.00.

Take `Cc1cc(Nc2nccc(C(F)F)n2)cc(-c2cnn(CC(O)CN)c2)c1` (stereo not drawn) [Example 5.37, 1-amino-3-[4-(3-{[4-(difluoromethyl)pyrimidin-2-yl]amino}-5-methylphenyl)-1H-pyrazol-1-yl]propan-2-ol]: the pIC50 was ≥ 7.00.

On to `Cc1cc(Nc2nccc(C(F)(F)F)n2)cc(-c2cnn(C3CCC(C(=O)O)CC3O)c2)c1` (stereo not drawn) [Example 5.38, 3-hydroxy-4-[4-(3-methyl-5-{[4-(trifluoromethyl)pyrimidin-2-yl]amino}phenyl)-1H-pyrazol-1-yl]cyclohexanecarboxylic acid], for which the pIC50 was ≥ 7.00.

Regarding `Cc1cc(Nc2nccc(C(F)(F)F)n2)cc(-c2cnn(C3CCC(C(=O)O)CC3O)c2)c1` (stereo not drawn) [Example 5.39, 3-hydroxy-4-[4-(3-methyl-5-{[4-(trifluoromethyl)pyrimidin-2-yl]amino}phenyl)-1H-pyrazol-1-yl]cyclohexane-carboxylic acid], the pIC50 is ≥ 7.00.

With `Cc1cc(Nc2nccc(C(F)F)n2)cc(-c2cnn(C[C@]3(O)C[C@H](C#N)C3)c2)c1` [Example 5.40, trans-3-{[4-(3-{[4-(difluoromethyl)pyrimidin-2-yl]amino}-5-methylphenyl)-1H-pyrazol-1-yl]methyl}-3-hydroxycyclobutane-carbonitrile], the pIC50 is ≥ 7.00.

For `Cc1cc(Nc2nccc(C(F)F)n2)cc(-c2cnn(CC3(O)CCC3)c2)c1` [Example 5.41, 1-{[4-(3-{[4-(difluoromethyl)pyrimidin-2-yl]amino}-5-methylphenyl)-1H-pyrazol-1-yl]methyl}cyclobutanol], the pIC50 is ≥ 7.00.

Regarding `Cc1cc(Nc2nccc(C(F)F)n2)cc(-c2cnn(CC3(O)CCS(=O)(=O)CC3)c2)c1` [Example 5.42, 4-{[4-(3-{[4-(difluoromethyl)pyrimidin-2-yl]amino}-5-methylphenyl)-1H-pyrazol-1-yl]methyl}tetrahydro-2H-thiopyran-4-ol 1,1-dioxide], the pIC50 is ≥ 7.00.

Regarding `Cc1cc(Nc2nccc(C(F)(F)F)n2)cc(-c2cnn(C[C@H](O)C(=O)NCCO)c2)c1` [Example 6.1, (2S)-2-hydroxy-N-(2-hydroxyethyl)-3-[4-(3-methyl-5-{[4-(trifluoromethyl)pyrimidin-2-yl]amino}phenyl)-1H-pyrazol-1-yl]propanamide], the pIC50 is ≥ 7.00.

Consider `Cc1cc(Nc2nccc(OCCO)n2)cc(-c2cnn(C[C@H](O)C(N)=O)c2)c1` [Example 6.2, (2S)-2-hydroxy-3-[4-(3-{[4-(2-hydroxyethoxy)pyrimidin-2-yl]amino}-5-methylphenyl)-1H-pyrazol-1-yl]propanamide], for which the pIC50 is ≥ 7.00.
